In series [1] the test system is RAW264.7. Nature of the series: Cytotoxicity against mouse RAW264.7 cells upto 20 uM incubated for 24 hrs by CCK-8 assay. In kind it is toxicity, cell-based. To be noted: raw264.7, 24 h. (Tetrazolium assays rely on reduction of a dye to a coloured formazan, in cell work by metabolically active cells.)
In series [2] the test system is RAW264.7. Nature of the series: Anti-inflammatory activity against mouse RAW264.7 cells assessed as inhibition of LPS-induced NO production at 20 uM incubated for 24 hrs. In kind it is functional, cell-based.

Activity calls are given as the source filed them. The calls are words filed in the database; no cut-off is given here.

As to `COc1cc(C[C@H](C(=O)N2CCN(c3ccccc3C)CC2)[C@@H](Cc2cc(OC)c(O)c(OC)c2)C(=O)N2CCN(c3ccccc3C)CC2)cc(OC)c1O`, the Activity result with RAW264.7 [1] was “Non-Toxic”. Besides, in the series with RAW264.7 [2], the result was Active.
With `COc1cc(C[C@H](C(=O)N2CCN(c3cccc(Cl)c3Cl)CC2)[C@@H](Cc2cc(OC)c(O)c(OC)c2)C(=O)N2CCN(c3cccc(Cl)c3Cl)CC2)cc(OC)c1O`, in the series with RAW264.7 [1], the Activity result is given as “Non-Toxic”.
For the compound `COc1cc(C[C@H](C(=O)N2CCCCC2)[C@@H](Cc2cc(OC)c(O)c(OC)c2)C(=O)N2CCCCC2)cc(OC)c1O`, in the series with RAW264.7 [1], the Activity entry is on record as “Non-Toxic”.
For the compound `COc1cc(C[C@H](C(=O)N2CCN(c3ccc(Cl)cc3)CC2)[C@@H](Cc2cc(OC)c(O)c(OC)c2)C(=O)N2CCN(c3ccc(Cl)cc3)CC2)cc(OC)c1O`, the Activity entry in the series with RAW264.7 [1] is “Non-Toxic”. Further, the outcome in the series on RAW264.7 [2] was Active.
On to `COc1ccccc1N1CCN(C(=O)[C@@H](Cc2cc(OC)c(O)c(OC)c2)[C@@H](Cc2cc(OC)c(O)c(OC)c2)C(=O)N2CCN(c3ccccc3OC)CC2)CC1`, for which the Activity result in the series on RAW264.7 [1] is listed as “Non-Toxic”.
As to `COc1cc(C[C@H](C(=O)NCC2CCCCC2)[C@@H](Cc2cc(OC)c(O)c(OC)c2)C(=O)NCC2CCCCC2)cc(OC)c1O`, in the series with RAW264.7 [1], the Activity result was “Non-Toxic”.
`CCCCCCNC(=O)[C@@H](Cc1cc(OC)c(O)c(OC)c1)[C@@H](Cc1cc(OC)c(O)c(OC)c1)C(=O)NCCCCCC`: the Activity entry in the series on RAW264.7 [1] was “Non-Toxic”.
As to `COc1cc(C[C@H](C(=O)N2CCN(c3ccc(C)cc3)CC2)[C@@H](Cc2cc(OC)c(O)c(OC)c2)C(=O)N2CCN(c3ccc(C)cc3)CC2)cc(OC)c1O`, in the series with RAW264.7 [1], the Activity result was “Non-Toxic”.
In the case of `COc1cc(C[C@H](C(=O)N2CCN(c3ccccc3C(F)(F)F)CC2)[C@@H](Cc2cc(OC)c(O)c(OC)c2)C(=O)N2CCN(c3ccccc3C(F)(F)F)CC2)cc(OC)c1O`, the Activity entry in the series with RAW264.7 [1] is recorded as “Non-Toxic”. Further, the outcome in the series with RAW264.7 [2] was Active.
In the case of `COc1cc(C[C@H](C(=O)N2CCN(c3ccc(C(F)(F)F)cc3)CC2)[C@@H](Cc2cc(OC)c(O)c(OC)c2)C(=O)N2CCN(c3ccc(C(F)(F)F)cc3)CC2)cc(OC)c1O`, the Activity result in the series with RAW264.7 [1] is given as “Non-Toxic”.
For `CNC(=O)[C@@H](Cc1cc(OC)c(O)c(OC)c1)[C@@H](Cc1cc(OC)c(O)c(OC)c1)C(=O)NC`, the Activity entry in the series with RAW264.7 [1] is recorded as “Non-Toxic”.
Turning to `COc1cc(C[C@H](C(=O)N2CCN(c3ccccc3)CC2)[C@@H](Cc2cc(OC)c(O)c(OC)c2)C(=O)N2CCN(c3ccccc3)CC2)cc(OC)c1O`, the Activity entry in the series with RAW264.7 [1] is reported as “Non-Toxic”.
Still for that read-out and setting: next, `COc1cc(C[C@H](C(=O)NC2CC2)[C@@H](Cc2cc(OC)c(O)c(OC)c2)C(=O)NC2CC2)cc(OC)c1O`: “Non-Toxic”.
Take `COc1cc(C[C@H](C(=O)N2CCN(c3cccc(Cl)c3)CC2)[C@@H](Cc2cc(OC)c(O)c(OC)c2)C(=O)N2CCN(c3cccc(Cl)c3)CC2)cc(OC)c1O`: the Activity entry with RAW264.7 [1] is “Non-Toxic”. Further, the result with RAW264.7 [2] was Active.
As for `COc1cc(C[C@H](C(=O)N2CCN(C)CC2)[C@@H](Cc2cc(OC)c(O)c(OC)c2)C(=O)N2CCN(C)CC2)cc(OC)c1O`, the Activity entry in the series on RAW264.7 [1] was “Non-Toxic”. Also, in the series with RAW264.7 [2], the outcome was Active.
`COc1cccc(N2CCN(C(=O)[C@@H](Cc3cc(OC)c(O)c(OC)c3)[C@@H](Cc3cc(OC)c(O)c(OC)c3)C(=O)N3CCN(c4cccc(OC)c4)CC3)CC2)c1`: the Activity entry with RAW264.7 [1] is given as “Non-Toxic”.
Turning to `COc1cc(C[C@H](C(=O)N2CCOCC2)[C@@H](Cc2cc(OC)c(O)c(OC)c2)C(=O)N2CCOCC2)cc(OC)c1O`, the Activity result in the series with RAW264.7 [1] was “Non-Toxic”. The outcome in the series on RAW264.7 [2] was Active.
Turning to `COc1cc(C[C@H](C(=O)N2CCN(c3ccc(F)cc3)CC2)[C@@H](Cc2cc(OC)c(O)c(OC)c2)C(=O)N2CCN(c3ccc(F)cc3)CC2)cc(OC)c1O`, in the series on RAW264.7 [1], the Activity result is “Non-Toxic”.
As to `COc1cc(C[C@H](C(=O)N2CCN(c3ccccc3Cl)CC2)[C@@H](Cc2cc(OC)c(O)c(OC)c2)C(=O)N2CCN(c3ccccc3Cl)CC2)cc(OC)c1O`, in the series on RAW264.7 [1], the Activity entry was “Non-Toxic”. Further, in the series with RAW264.7 [2], the outcome was Active.
Turning to `COc1cc(C[C@H](C(=O)NC2CCCCC2)[C@@H](Cc2cc(OC)c(O)c(OC)c2)C(=O)NC2CCCCC2)cc(OC)c1O`, the Activity result in the series on RAW264.7 [1] is on record as “Non-Toxic”.
`COc1cc(C[C@H](C(=O)N2CCN(c3cccc(C(F)(F)F)c3)CC2)[C@@H](Cc2cc(OC)c(O)c(OC)c2)C(=O)N2CCN(c3cccc(C(F)(F)F)c3)CC2)cc(OC)c1O`: the Activity entry in the series on RAW264.7 [1] was “Non-Toxic”. Besides, the outcome in the series with RAW264.7 [2] was Active.
For `COc1ccc(N2CCN(C(=O)[C@@H](Cc3cc(OC)c(O)c(OC)c3)[C@@H](Cc3cc(OC)c(O)c(OC)c3)C(=O)N3CCN(c4ccc(OC)cc4)CC3)CC2)cc1`, the Activity result in the series on RAW264.7 [1] is on record as “Non-Toxic”.
Turning to `COc1cc(C[C@H](C(=O)NC2CCC(OC)CC2)[C@@H](Cc2cc(OC)c(O)c(OC)c2)C(=O)NC2CCC(OC)CC2)cc(OC)c1O` (stereo partly specified), the Activity entry in the series on RAW264.7 [1] is listed as “Non-Toxic”.
As to `COc1cc(C[C@H](C(=O)NC2CC(OC)C2)[C@@H](Cc2cc(OC)c(O)c(OC)c2)C(=O)NC2CC(OC)C2)cc(OC)c1O` (stereo partly specified), in the series on RAW264.7 [1], the Activity result is “Non-Toxic”.
On to `COc1cc(C[C@H](C(=O)N2CCN(c3ccccc3F)CC2)[C@@H](Cc2cc(OC)c(O)c(OC)c2)C(=O)N2CCN(c3ccccc3F)CC2)cc(OC)c1O`, for which the Activity result with RAW264.7 [1] is listed as “Non-Toxic”.
As to `COc1cc(C[C@H](C(=O)N2CCN(c3ccc(F)cc3F)CC2)[C@@H](Cc2cc(OC)c(O)c(OC)c2)C(=O)N2CCN(c3ccc(F)cc3F)CC2)cc(OC)c1O`, the Activity entry in the series on RAW264.7 [1] was “Non-Toxic”. Moreover, the result with RAW264.7 [2] was Active.
Take `COc1cc(C[C@H](C(=O)N2CCN(c3cccc(F)c3)CC2)[C@@H](Cc2cc(OC)c(O)c(OC)c2)C(=O)N2CCN(c3cccc(F)c3)CC2)cc(OC)c1O`: the Activity entry in the series with RAW264.7 [1] is “Non-Toxic”.
Still for that read-out and setting: for `COc1cc(C[C@H](C(=O)NC2CCC2)[C@@H](Cc2cc(OC)c(O)c(OC)c2)C(=O)NC2CCC2)cc(OC)c1O` the value was “Non-Toxic”; for `COc1cc(C[C@H](C(=O)NCC2CCC2)[C@@H](Cc2cc(OC)c(O)c(OC)c2)C(=O)NCC2CCC2)cc(OC)c1O`, “Non-Toxic”.
Still for that read-out and setting: next, `COc1cc(C[C@H](C(=O)N2CCN(c3cccc(C)c3)CC2)[C@@H](Cc2cc(OC)c(O)c(OC)c2)C(=O)N2CCN(c3cccc(C)c3)CC2)cc(OC)c1O`: “Non-Toxic”.
Turning to `COc1cc(C[C@H](C(=O)N2CCN(c3ccccc3Br)CC2)[C@@H](Cc2cc(OC)c(O)c(OC)c2)C(=O)N2CCN(c3ccccc3Br)CC2)cc(OC)c1O`, the Activity entry with RAW264.7 [1] is “Non-Toxic”.
For the compound `COc1cc(C[C@H](C(=O)NC2CC(F)(F)C2)[C@@H](Cc2cc(OC)c(O)c(OC)c2)C(=O)NC2CC(F)(F)C2)cc(OC)c1O`, the Activity entry in the series on RAW264.7 [1] is reported as “Non-Toxic”.

Source of the values: ChEMBL document CHEMBL5543105, “Total synthesis and structural modification of the dibenzylbutane lignan LCA as a potent anti-inflammatory agent against LPS-induced acute lung injury” (Eur J Med Chem, 2024).
